In patent US9839614B2, “Nanoparticle and polymer formulations for thyroid hormone analogs, antagonists, and formulations and uses thereof” (NANOPHARMACEUTICALS LLC, priority 2009, dated 2017):

Key:
GL261 tumor cells = assay: GL261 apoptosis and necrosis with or without 5 Gy x-rays; type: cell-based, murine; details: Tetrac 2 μM, T-NP 0.2 μM
Protocol: FIG. 61 is a comparison of apoptosis on Tetrac (2 μM) and T-NP (0.2 μM) treated GL261 cells that were or were not exposed to 5 Gy x-rays. The effects of Tetrac and T-NP plus 5 Gy of x-rays on apoptosis appear to be supra-additive.
Apoptotic cells were identified using TUNEL staining (Terminal deoxynucleotidyl transferase dUTP nick end labeling (TUNEL)) (staining kit obtained from Oncor, Gaithersberg, Md.; ApoTag) (See Gavrieli et al., J. Cell. Biol. 1992. 119:493-501). The staining procedures were carried out as instructed by the manufacturer. Gill's hematoxylin was used as a counterstain to discriminate negative cells (purple) from positive cells (brown). Negative controls were performed by omitting the terminal deoxynucleotidyl transferase enzyme. […]
To perform FCM, a total of 10^6 adherent cells were trypsinized and washed once in ambient temperature PBS. […] Cells were left overnight at 4° C. in the dark and were then analyzed on a Coulter fluorescence-activated cell sorter (Coulter Electronics, Hialeah, Fla.). Cells were excited with a single 488 nm argon laser and the resulting fluorescence was detected using a 585 nm filter. Linear red-orange fluorescence (FL3) data were collected in list format and 10,000 events were collected. The distribution of cells within the cell cycle (sub-G1, G1, S, and G2 M phases) was determined using a Coulter software program.

[1] = test system: P-gp, GST and SOD in MCF7/R cells; assay: Western blot of drug resistance genes; type: cell-based; details: 24 h
Protocol: FIG. 15A is a Western blot showing the expression of P-gp, GST and SOD in wild type (W) drug sensitive and resistant (R) MCF7 cells.
The cells were treated for 24 h with each drug alone or the combination of both, after that, expression of drug resistance molecules was determined by Western blot using specific antibodies.

[2] = test system: MDA-MB-231 cells gene expression; assay: RNA microarray of MDA-MB-231 cells (Example 16); type: cell-based, human
Protocol: MDA-MB-231 cells were purchased from ATCC (Manassas, Va.). Cells were maintained until use in DMEM that contained 10% FBS. The incubator conditions were 5% CO2/95% 02 and 37° C. The action of unmodified Tetrac and nanoparticulate on MDA-MB-231 cells was determined in a perfusion bellows cell culture system we have recently described for quantitating pharmaceutical agent pharmacodynamics in vitro. (See Lin et al., J Steroid Biochem Mol Biol 113: 182-188 (2009)). In brief, the cell culture system is a disposable bioreactor capable of high density cell culture for studies of anti-cancer drugs. Bellows-induced alternate flow of culture medium and air through porous matrices where cells are grown provides a relatively low shear, high aeration, foam-free culture environment. Medium level is raised and lowered to submerge and expose matrices to create a dynamic interface between air and media on the cell surface. Anchorage-dependent cells are grown on plastic flakes in the system. The flakes facilitate harvesting of whole cells for analysis. In the present studies, 5×10^7 cells were seeded in each perfusion flask and incubated at 37 C overnight. Flakes thereafter were sampled at regular intervals (FIG. 44), subjected to trypsinization and the harvested cells counted. When Tetrac or nanoparticulate Tetrac were initially added to the system, flasks contained 20-50×10^6 cells. Cell cultures were re-fed with 1% FBS-containing medium. Studies were carried out in duplicate flasks and replicated once. • Cell culture for harvesting of RNA. MDA-MB-231 cells were maintained in DMEM that was supplemented with 10% FBS in a 5% CO2/95% 02 air incubator at 37° C. For two days prior to exposure to Tetrac and nanoparticulate Tetrac, cells were maintained in 0.25% FBS that was stripped of estrogen and thyroid hormone. (See Lin et al., Biochemistry 42: 7571-7579 (2003)). • RNA microarray and analysis. Microarray analysis experiments were conducted as described previously. (See Glinsky et al., J Clin Invest 115: 1503-1521 (2005); Glinsky et al., J Clin Invest 113: 913-923 (2004); Glinsky et al., Clin Cancer Res 10: 2272-2283 (2004); and Glinsky et al., Mol Carcinog 37: 209-221 (2003)). […] Sample purity and integrity were verified with an Agilent BioAnalyzer (Santa Clara, Calif.). Expression analysis of 54,675 transcripts for each sample was by Affymetrix HG-U133A Plus 2.0 arrays. MAS5.0 software was used for data retrieval and analysis and concordant changes of gene expression in response to unmodified Tetrac and nanoparticulate Tetrac were defined by two-tailed t test at a threshold p value <0.01. Results • Effects of Tetrac and nanoparticulate Tetrac on MDA-MB-231 cell proliferation. […] Unmodified Tetrac at 10^−6M, introduced at day 0, inhibited cell proliferation by more than 30% by day 9. […] Actions shown here of nanoparticulate Tetrac on these pairs of genes are antithetic to tumor cell survival. […] A third pathway affected by the agents was that of the catenins. (See Takemaru et al., Nature 422: 905-909 (2003)). CBY1 is a potent inhibitor of β-catenin and the Wnt/β-catenin system, which are major survival pathways in cancer cells. CBY1 expression was induced by Tetrac and Tetrac NP.

[3] = test system: GL261 murine brain tumor cells; assay: GL261 sublethal damage repair (SLDR), split dose; type: cell-based
Protocol: SLDR was measured at 10% immediate survival level as determined from the acute single dose curve for both control and Tetrac-treated cells in both growth states (i.e. exponentially growing and plateau phase cells. Flasks were irradiated with one-half of the total dose and returned to the 37° C. incubator. At increasing periods of time, flasks were removed, and given the second half of the immediate 10% survival dose. Survival was measured at 0, 0.5, 1.0, 1.5, 2.0, 3.0, 4.0, 6.0, 8.0, and 10.0 hours after the initial dose.
To investigate the effects of tetrac on SLDR and PLDR, cells were chosen that had been given a one-hour treatment with tetrac at two different times, i.e., at 70 and 270 hours post-seeding).

[4] = test system: human MTC cells gene expression; assay: RNA microarray analysis of h-MTC cells; type: cell-based
Protocol: Technical aspects of microarray studies, stringent quality control of microarray studies and statistic analysis of gene expression were as described previously. […] In brief, the array hybridization and processing, data retrieval and the analysis were carried out with standard sets of Affymetrix (Santa Clara, Calif.) equipment, software and protocols in an Affymetrix microarray core facility. RNA was extracted from cell cultures of two independent biological replicates of each experimental condition and analyzed for sample purity and integrity, using BioAnalyzer instrumentation (Agilent, Santa Clara, Calif.). Expression analysis of 54,675 transcripts was conducted for each sample, using Affymetrix HG-U133A Plus 2.0 arrays. Data retrieval and analysis was completed by MAS5.0 software. Concordant changes of gene expression for each experimental condition were determined at the statistical threshold P value, <0.01 (two-tailed t test).

O=C(O)Cc1cc(I)c(Oc2cc(I)c(O)c(I)c2)c(I)c1 [Tetrac, tetraiodothyroacetic acid]
effect on apoptosis combined with 5 Gy of x-rays (GL261 tumor cells): supra-additive | effect on necrosis combined with x-rays (GL261 tumor cells; 120 hours): essentially additive | expression of P-glycoprotein, SOD, and GST-π [1]: none of these genes was significantly altered | BCL2L14 expression ([2]; MDA-MB-231): not a significant stimulatory action | CASP2 expression ([2]; MDA-MB-231): not a significant stimulatory action | CBY1 expression ([2]; MDA-MB-231): significantly increased | MCL1 expression ([2]; MDA-MB-231): did not significantly affect | THBS1 expression ([2]; MDA-MB-231): upregulation | XIAP expression ([2]; MDA-MB-231): also acted on XIAP | EGFR expression ([2]; MDA-MB-231 (FIG. 50)): ineffective | cellular repair of x-ray damage (FIG. 58) ([3]; Tetrac 2 uM, 6 to 8 hours post-irradiation): no repair of x-ray damage | SLDR recovery ratio ([3]; exponential Tetrac-treated cells, 2 hours after the first dose): 1.8 | factor of reduction of SLDR ([3]; exponential cells): 1.8 | factor of decrease in cellular repair ([3]; plateau phase cells, three hours post-irradiation): ~3 | survival relative to survival at 0 hours ([3]; plateau phase, 3 hours after the initial dose): approximately 36% | VEGFA expression [4]: significantly decreased expression | expression of apoptosis genes (CASP2, DFFA, FAF1, CASP8AP2) [4]: caused expression of genes associated with induction of apoptosis | thrombospondin (THBS1) gene expression [4]: concomitant increase
